These results are taken from patent US20230320978A1, “COMPOSITIONS AND METHODS FOR LOWERING INTRACRANIAL PRESSURE” (THE REGENTS OF THE UNIVERSITY OF COLORADO, A BODY CORPORATE, priority 2020, published 2023).

Holding throughout (format): in vivo
Assay [1] has as its system C57/BL6 mice. In words: Tracer recovery from nasal mucosa after single intranasal dose and ventricular injection of fluorescent tracer. The conditions noted are these: single intranasal dose; for increase in tracer recovery from the nasal mucosa relative to control animals: p<0.001 compared to control; for increase in nasal tracer recovery relative to vehicle-treated controls: commercial concentrations, p<0.05 vs control; for nasal tracer recovery at higher doses: higher doses than the commercial concentration (5x or 10x). The protocol: In another exemplary method, compositions including prostaglandin F2-alpha analogues were used to analyze increased lymphatic channel contractility in the nasal mucosa of experimental animals. In this example, prostaglandin F2-alpha analogues latanoprost, bimatoprost, travoprost, latanoprostene bunod, and tafluprost were administered via an intranasal vehicle into the nasal mucosa of mice.
In this example, a total of 67 animals were studied using a scaled dosing technique in which each prostaglandin analog was evaluated at its commercial ophthalmic concentration as well as one or two more concentrated forms (either 5× or 10×).
Commercially available prostaglandin F2-alpha analogues used in the treatment of glaucoma were selected for evaluation; these included latanoprost, bimatoprost, travoprost, latanoprostene bunod, and tafluprost. Initial experiments were conducted with topical ophthalmic preparations, and pharmaceutical grade drug also was obtained and placed into solution for use in a more concentrated form. Agents were solubilized in DMSO and diluted in normal saline.
For single inhalation trails described herein, awake adult male and female C57/BL6 mice (approx. 6 weeks of age) were administered intranasal vehicle (10% DMSO) or drug solution (total 8 μl) by placing droplets (1-2 μl) of liquid at the nares using a micropipette and allowing the animal to inhale the liquid spontaneously. Anesthesia with ketamine and xylazine was administered via intraperitoneal injection, and anesthetized animals were placed within a stereotaxic apparatus. For multiday studies, intranasal drug administration was performed on awake animals daily using the same procedure described above. Approximately 6 hours after the third daily dose was given, animals were anesthetized and placed within a stereotaxic apparatus. A midline incision was created along the scalp, and the right lateral ventricle was targeted with placement of a 26-gauge needle to a depth of 3 mm into the brain at a position 1 mm lateral and 0.3 mm anterior to bregma. A 5 μl intraventricular injection of fluorescent tracer (AlexaFluor^647-ovalbumin solution) was delivered at a rate of 100 nl/seconds using a Hamilton syringe and an electric pump. Animals remained anesthetized for the 1 hour recovery period post injection and were then euthanized with a lethal overdose of ketamine followed by secondary cervical dislocation. Nasal turbinates were harvested, and tissue extracts were analyzed by ELISA.
The experimental technique was validated by evaluating recovery of fluorescent tracer from nasal mucosa after ventricular injection in the absence of intranasal treatment. Time points for tissue harvest were selected based on increased recovery at 60 minutes versus 30 minutes, with later harvest raising concern for potential contamination of specimens by hematogenous CSF absorption and recirculation of tracer throughout the tissues via arterial flow.
Statistical analyses were conducted with Stata using either two-tailed Student's t-tests or ANOVA RM with Dunnet's post hoc analysis.

Assay [2] deals with C57/BL6 mice. In words: Tracer recovery from nasal turbinates after intranasal dosing once a day for three consecutive days. The conditions noted are these: 0.1, 0.5 or 1 mg/ml once a day for 3 days. How it is done: In another example, an additional 14 animals were administered inhaled doses of latanoprost (either 0.1, 0.5, or 1 mg/ml) once a day for three (3) consecutive days. Nasal turbinates were isolated 1 hour after ventricular tracer injection and between 7 and 9 hours after the final latanoprost dose was given intranasally according to the exemplary methods described herein.
For single inhalation trails described herein, awake adult male and female C57/BL6 mice (approx. 6 weeks of age) were administered intranasal vehicle (10% DMSO) or drug solution (total 8 μl) by placing droplets (1-2 μl) of liquid at the nares using a micropipette and allowing the animal to inhale the liquid spontaneously. Anesthesia with ketamine and xylazine was administered via intraperitoneal injection, and anesthetized animals were placed within a stereotaxic apparatus. For multiday studies, intranasal drug administration was performed on awake animals daily using the same procedure described above. Approximately 6 hours after the third daily dose was given, animals were anesthetized and placed within a stereotaxic apparatus. […] Nasal turbinates were harvested, and tissue extracts were analyzed by ELISA. […]

For assay [3], the system named is C57/BL6 mice. In words: Tracer recovery from nasal mucosa after single intranasal dose and ventricular injection of fluorescent tracer. The following applies: single inhalation, lower doses, p<0.05 relative to controls.

Consider `CC(C)OC(=O)CCC/C=C\C[C@@H]1[C@@H](CC[C@@H](O)CCc2ccccc2)[C@H](O)C[C@@H]1O` [latanoprost, isopropyl (Z)-7-[(1R,2R,3R,5S)-3,5-dihydroxy-2-[(3R)3-hydroxy-5-phenylpentyl]-cyclopentyl] hept-5-enoate], for which the “increase in tracer recovery from the nasal mucosa relative to control animals” value in assay [1] (0.5 mg/ml solution, after 60 minutes) is reported as “approximately 10 fold”; in assay [1] (1 mg/ml solution, after 60 minutes) it was “approximately 10 fold”. In assay [1] (0.1 to 1 mg/ml, after 60 minutes), the “dose dependence of the increase in tracer recovery from the nasal mucosa” value is on record as “semi dose-dependent increase”. The “tracer recovery compared with all tested prostaglandin analogs and 0.1 mg/ml latanoprost” value in assay [1] (concentrated 0.5 mg/ml and 1 mg/ml) is “significant increase in tracer recovery over all tested prostaglandin analogs and 0.1 mg/ml latanoprost”. Besides, the “increased tracer recovery vs control” value in assay [1] (standard ophthalmic dose 0.1 mg/ml, p<0.01 vs control) is “approximately 6 fold”. The “difference in tracer recovery amongst the 3 doses” value in assay [2] is recorded as “no statistically significant difference”. Moreover, the “increase in tracer recovery relative to controls” value in assay [2] (turbinates isolated 1 hour after tracer injection, 7 to 9 hours after final dose, p<0.05) was approximately 3 fold.
As for `CC(C)OC(=O)CCC/C=C\C[C@@H]1[C@@H](/C=C/C(F)(F)COc2ccccc2)[C@H](O)C[C@@H]1O` [tafluprost], in assay [1], the “increase in nasal tracer recovery relative to vehicle-treated controls” value is given as “approximately 1.5 fold” and the “nasal tracer recovery at higher doses” value is given as “did not appear to improve at higher doses”. In addition, in assay [3], the “tracer recovery relative to controls, fluorometric analysis of nasal turbinate homogenates (words, FIG. 3)” value is “Some enhanced tracer recovery relative to controls”.
Take `CCNC(=O)CCC/C=C\C[C@@H]1[C@@H](/C=C/[C@@H](O)CCc2ccccc2)[C@H](O)C[C@@H]1O` [bimatoprost]: in assay [1], the “increase in nasal tracer recovery relative to vehicle-treated controls” value is listed as “approximately 1.5 fold” and the “nasal tracer recovery at higher doses” value is on record as “did not appear to improve at higher doses”. In assay [3], the “tracer recovery relative to controls, fluorometric analysis of nasal turbinate homogenates (words, FIG. 3)” value is “Some enhanced tracer recovery relative to controls”.
As for `CC(C)OC(=O)CCC/C=C\C[C@@H]1[C@@H](/C=C/[C@@H](O)COc2cccc(C(F)(F)F)c2)[C@H](O)C[C@@H]1O` [travoprost], the “effect on nasal tracer recovery at any tested dose” value in assay [1] is “Neither travoprost nor latanoprostene bunod demonstrated a measurable effect”.
Still for that read-out and setting: to `O=C(CCC/C=C\C[C@@H]1[C@@H](CC[C@@H](O)CCc2ccccc2)[C@H](O)C[C@@H]1O)OCCCCO[N+](=O)[O-]` [latanoprostene bunod] belongs “Neither travoprost nor latanoprostene bunod demonstrated a measurable effect”.
